Results reported in article PMC2659691 (Journal of Medicinal Chemistry, 2009).

Assays:
T. cruzi TryR = T. cruzi TryR (Trypanosoma cruzi, UniProt P28593); test: TryR inhibition, high-throughput microplate assay; assay type: biochemical
T. brucei TryR = T. brucei TryR (Trypanosoma brucei brucei, UniProt P39051); test: TryR inhibition, high-throughput microplate assay; assay type: biochemical
T. brucei TryR, sequence (P39051 whole entry): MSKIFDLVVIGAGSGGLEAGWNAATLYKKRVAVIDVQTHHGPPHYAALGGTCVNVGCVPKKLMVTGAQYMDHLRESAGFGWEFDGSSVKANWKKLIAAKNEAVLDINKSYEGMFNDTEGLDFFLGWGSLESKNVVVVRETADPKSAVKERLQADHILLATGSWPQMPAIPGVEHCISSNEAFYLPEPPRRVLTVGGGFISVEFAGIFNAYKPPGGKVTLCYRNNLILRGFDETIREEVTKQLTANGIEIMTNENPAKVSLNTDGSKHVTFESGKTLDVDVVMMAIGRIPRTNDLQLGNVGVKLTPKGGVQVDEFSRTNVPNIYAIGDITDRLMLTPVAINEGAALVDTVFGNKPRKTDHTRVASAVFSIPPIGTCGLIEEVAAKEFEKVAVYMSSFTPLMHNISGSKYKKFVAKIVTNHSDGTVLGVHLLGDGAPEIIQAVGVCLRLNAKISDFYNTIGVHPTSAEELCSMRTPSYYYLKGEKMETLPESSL

T. cruzi TryR, sequence (P28593 whole entry): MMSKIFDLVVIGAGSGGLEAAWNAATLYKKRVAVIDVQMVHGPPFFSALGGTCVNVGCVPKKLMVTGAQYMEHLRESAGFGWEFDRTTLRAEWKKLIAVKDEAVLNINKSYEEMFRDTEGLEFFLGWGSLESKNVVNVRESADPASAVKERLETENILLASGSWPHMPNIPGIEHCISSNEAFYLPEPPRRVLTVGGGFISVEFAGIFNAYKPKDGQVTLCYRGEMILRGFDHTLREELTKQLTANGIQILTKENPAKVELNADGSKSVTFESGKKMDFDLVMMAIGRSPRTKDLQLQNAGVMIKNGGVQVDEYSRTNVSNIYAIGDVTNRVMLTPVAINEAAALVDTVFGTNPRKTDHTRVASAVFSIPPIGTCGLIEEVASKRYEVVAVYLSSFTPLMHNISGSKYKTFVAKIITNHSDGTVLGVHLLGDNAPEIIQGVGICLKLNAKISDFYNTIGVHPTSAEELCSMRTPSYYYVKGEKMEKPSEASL

SMILES | inhibitory activity against TryR (in words) (T. cruzi TryR) | inhibitory activity against TryR (in words) (T. brucei TryR)
O=C(CN1C(=O)C2CC=CCC2C1=O)Nc1ccccc1Sc1ccc(Cl)cc1 (stereo not shown) [Compound 12] | neither 12 nor 16 displayed significant inhibitory activity | neither 12 nor 16 displayed significant inhibitory activity
O=C(CN1C(=O)NC2(CCCCCC2)C1=O)Nc1ccccc1Sc1ccccc1 [Compound 16] | neither 12 nor 16 displayed significant inhibitory activity | neither 12 nor 16 displayed significant inhibitory activity
